Like-named read-outs stand apart in the source and are kept apart here.
Tests used:
[1] = test system: postoperative pain after third molar surgery; details: VAS, paracetamol 1000 mg, RA Seymour et al 2003, cited from earlier work
[2] = test system: pain following wisdom tooth extraction under local anaesthesia; assay: pilot study using a dental pain model, visual analogue scale pain scores; format: in vivo, patients; details: VAS score, calculated from the trial of Example 5, lower = less pain
Protocol: Pain scores at rest and on activity were measured by visual analogue scales which were used to derive an area-under-the curve (AUC) pain score. A lower AUC represents better pain relief.
A lower VAS score is consistent with less pain due to better pain relief. […] Pain scores were calculated as means over the first dose interval rather than AUC values to allow comparison with literature values for paracetamol in the dental pain model.

Row | Structure (SMILES) | Mean Pain Score at Rest ([1]; 0-30 minutes) | Mean Pain Score at Rest ([1]; over 4 hours) [mm] | Mean Pain Score at Rest (over first dose interval) [2] [mm]
1 | CC(=O)Nc1ccc(O)cc1 [Paracetamol] | 46-48 mm | 42 | –
2 | CC(C)Cc1ccc(C(C)C(=O)O)cc1 (stereo not drawn) [Ibuprofen] | – | – | 28

— patent US10532036B2, “Combination composition” (AFT Pharmaceuticals Ltd, priority 2004, dated 2020)
